pIC50: −log10 of the molar value. Activity calls are given as the source filed them. No cut-off for these calls is given here.
Assays:
[1] = Antioxidant activity assessed as DPPH radical scavenging activity incubated for 60 mins in absence of light; assay type: functional
[2] = Cytotoxicity against human SH-SY5Y cells assessed as cell viability at 6.3 uM measured after 2 hrs by MTT assay relative to control; assay type: cell-based; conditions: read-out: Activity
[3] = Cytotoxicity against human SH-SY5Y cells assessed as cell viability at 25 uM measured after 2 hrs by MTT assay relative to control; assay type: cell-based; conditions: read-out: Activity
[4] = Permeability of the compound at pH 7.4 by PAMPA-BBB assay; assay type: ADME; conditions: read-out: permeability
[5] = Cytotoxicity against human SH-SY5Y cells assessed as cell viability at 100 uM measured after 24 hrs by MTT assay relative to control; assay type: cell-based; conditions: read-out: Activity
[6] = Cytotoxicity against human SH-SY5Y cells assessed as cell viability at 50 uM measured after 24 hrs by MTT assay relative to control; assay type: cell-based; conditions: read-out: Activity
[7] = Cytotoxicity against human SH-SY5Y cells assessed as cell viability at 6.3 uM measured after 24 hrs by MTT assay relative to control; assay type: cell-based; conditions: read-out: Activity
[8] = Cytotoxicity against human SH-SY5Y cells assessed as cell viability at 0.8 uM measured after 2 hrs by MTT assay relative to control; assay type: cell-based; conditions: read-out: Activity
[9] = system: SH-SY5Y; assay: Antioxidant activity in human SH-SY5Y cells assessed as inhibition of H2O2-induced DCFH oxidation measured after 1 hr by DCFH-DA dye based fluorescence assay; assay type: functional, cell-based
[10] = Cytotoxicity against human SH-SY5Y cells assessed as cell viability at 50 uM measured after 2 hrs by MTT assay relative to control; assay type: cell-based; conditions: read-out: Activity
[11] = Drug concentration in Sprague-Dawley rat plasma at 0.2 mmol/Kg, ip measured after 1 hr by HPLC based fluorimetric analysis; assay type: ADME, organism-based
[12] = Cytotoxicity against human SH-SY5Y cells assessed as cell viability at 1.6 uM measured after 2 hrs by MTT assay relative to control; assay type: cell-based; conditions: read-out: Activity
[13] = Retention time in Sprague-Dawley rat brain by HPLC based fluorimetric analysis; assay type: ADME, tissue-based
[14] = Cytotoxicity against human SH-SY5Y cells assessed as cell viability at 12.5 uM measured after 2 hrs by MTT assay relative to control; assay type: cell-based; conditions: read-out: Activity
[15] = Cytotoxicity against human SH-SY5Y cells assessed as cell viability at 3.1 uM measured after 24 hrs by MTT assay relative to control; assay type: cell-based; conditions: read-out: Activity
[16] = Retention time in Sprague-Dawley rat plasma by HPLC based fluorimetric analysis; assay type: ADME, cell-free
[17] = Cytotoxicity against human SH-SY5Y cells assessed as cell viability at 25 uM measured after 24 hrs by MTT assay relative to control; assay type: cell-based; conditions: read-out: Activity
[18] = Cytotoxicity against human SH-SY5Y cells assessed as cell viability at 12.5 uM measured after 24 hrs by MTT assay relative to control; assay type: cell-based; conditions: read-out: Activity
[19] = Cytotoxicity against human SH-SY5Y cells assessed as cell viability at 0.8 uM measured after 24 hrs by MTT assay relative to control; assay type: cell-based; conditions: read-out: Activity
[20] = Drug concentration in Sprague-Dawley rat brain at 0.2 mmol/Kg, ip measured after 1 hr by HPLC based fluorimetric analysis; assay type: ADME, organism-based; conditions: in vivo
[21] = Cytotoxicity against human SH-SY5Y cells assessed as cell viability at 1.6 uM measured after 24 hrs by MTT assay relative to control; assay type: cell-based; conditions: read-out: Activity
[22] = Cytotoxicity against human SH-SY5Y cells assessed as cell viability at 100 uM measured after 2 hrs by MTT assay relative to control; assay type: cell-based; conditions: read-out: Activity
[23] = Cytotoxicity against human SH-SY5Y cells assessed as cell viability at 3.1 uM measured after 2 hrs by MTT assay relative to control; assay type: cell-based; conditions: read-out: Activity
[24] = system: SH-SY5Y; assay: Cytoprotective activity against DMSO-induced toxicity in human SH-SY5Y cells; assay type: functional, cell-based

| SMILES | pIC50 [1] | pIC50 [9] | concentration at 1 h [11] | viability at 2 h, 6.3 µM [2] | viability at 2 h, 25 µM [3] | viability at 24 h, 100 µM [5] | viability at 24 h, 50 µM [6] | viability at 24 h, 6.3 µM [7] | viability at 2 h, 0.8 µM [8] | Activity [9] | viability at 2 h, 50 µM [10] | viability at 2 h, 1.6 µM [12] | viability at 2 h, 12.5 µM [14] | viability at 24 h, 3.1 µM [15] | viability at 24 h, 25 µM [17] | viability at 24 h, 12.5 µM [18] | viability at 24 h, 0.8 µM [19] | viability at 24 h, 1.6 µM [21] | viability at 2 h, 100 µM [22] | viability at 2 h, 3.1 µM [23] | further results |
| --- | --- | --- | --- | --- | --- | --- | --- | --- | --- | --- | --- | --- | --- | --- | --- | --- | --- | --- | --- | --- | --- |
| COc1cc2c(cc1O)CCC(C)(CC(=O)N[C@@H](Cc1ccccc1)C(=O)O)O2 (some centres not stated) | 4.83 | 4.35 | 0.9 µM | 100% | 100% | 59.1% | 89.5% | 87.5% | 99% | Dose-dependent effect | 100% | 100% | 100% | 93% | 81.1% | 82.3% | 100% | 100% | 72.2% | 100% | Papp [4]: 0.49 ×10⁻⁶ cm/s; Activity [24]: Active; Ct [20]: 0 nmol/g |
| COc1cc2c(cc1O)CCC(C)(CCNC(=O)C[C@H]1OC(O)[C@H](O)[C@@H](O)[C@@H]1O)O2 (some centres not stated) | 4.88 | 4.45 | 26 µM | 100% | 100% | 56.6% | 86.6% | 87.2% | 88.9% | Dose-dependent effect | 99.6% | 95.3% | 100% | 88.1% | 87.9% | 90.6% | 96.1% | 96.7% | 77.6% | 93.3% | Retention_time [13]: 2 min; Activity [24]: Active; Ct [20]: 3.1 nmol/g |

More lines, main results first:

| pIC50 [1] | pIC50 [9] | concentration at 1 h [11] | SMILES | viability at 2 h, 6.3 µM [2] | viability at 2 h, 25 µM [3] | viability at 24 h, 100 µM [5] | viability at 24 h, 50 µM [6] | viability at 24 h, 6.3 µM [7] | viability at 2 h, 0.8 µM [8] | Activity [9] | viability at 2 h, 50 µM [10] | viability at 2 h, 1.6 µM [12] | viability at 2 h, 12.5 µM [14] | viability at 24 h, 3.1 µM [15] | viability at 24 h, 25 µM [17] | viability at 24 h, 12.5 µM [18] | viability at 24 h, 0.8 µM [19] | viability at 24 h, 1.6 µM [21] | viability at 2 h, 100 µM [22] | viability at 2 h, 3.1 µM [23] | further results |
| --- | --- | --- | --- | --- | --- | --- | --- | --- | --- | --- | --- | --- | --- | --- | --- | --- | --- | --- | --- | --- | --- |
| 4.85 | 4.66 | 2.4 µM | COc1cc2c(cc1O)CCC(C)(C)O2 | 92.2% | 90.6% | 96.1% | 95.2% | 98% | 98.5% | Dose-dependent effect | 86.8% | 94.1% | 91.5% | 99.4% | 93.2% | 100% | 91.1% | 93.9% | 66.9% | 85.6% | Papp [4]: 0.25 ×10⁻⁶ cm/s; Retention_time [13]: 8 min; Retention_time [16]: 8 min; Ct [20]: 4 nmol/g |
| 4.84 | 4.30 | 3 µM | COc1cc2c(cc1O)CCC(C)(CCNC(C)=O)O2 (configuration not stated) | 79.4% | 89.2% | 57.9% | 66.5% | 87.8% | 91.3% | Dose-dependent effect | 81.2% | 100% | 84.8% | 90.7% | 76.2% | 83.5% | 89% | 78.7% | 66.6% | 82.3% | Papp [4]: 0.52 ×10⁻⁶ cm/s; Retention_time [13]: 4 min; Ct [20]: 2.3 nmol/g |
| 4.85 | < 3.70 | 52.3 µM | COc1cc2c(cc1O)CCC(C)(CC(N)C(=O)O)O2 (configuration not stated) | 100% | 100% | 60.1% | 85.7% | 100% | 100% | Dose-dependent effect | 100% | 100% | 100% | 100% | 88.5% | 100% | 82.7% | 100% | 87.8% | 100% | Papp [4]: 0.04 ×10⁻⁶ cm/s; Retention_time [13]: 7 min; Activity [24]: Active; Ct [20]: 15.8 nmol/g |
| 4.71 | 4.30 | 7 µM | COc1cc2c(cc1O)CCC(C)(CC(=O)N[C@@H](Cc1ccc(O)cc1)C(=O)O)O2 (some centres not stated) | 99.7% | 95.5% | 67.5% | 78.6% | 83.3% | 92.2% | Dose-dependent effect | 95.7% | 94.5% | 92.5% | 89.9% | 82.7% | 81.6% | 79.7% | 89.5% | 75.8% | 100% |  |
